Assay results as given in PMC11272611, “Phase Ib and pharmacokinetics study of alpelisib, a PIK3CA inhibitor, and capecitabine in patients with advanced solid tumors” (Frontiers in Oncology, 2024).
Like-named read-outs stand apart in the source and are kept apart here.

What was measured:
[1] = Pharmacokinetics of alpelisib and capecitabine in plasma (LC-MS/MS, non-compartmental); format: in vivo, human; conditions: for half-life / AUC(0-t) / Cmax: mean (range); for AUC(0-t): read-out: AUC0-6h; for AUC: range across dose escalation (dose levels 0 to 2), read-out: area under the concentration-time-curve (AUC)
Experimental: The pharmacokinetic (PK) analysis was conducted in all patients who received at least one dose of alpelisib and capecitabine combination therapy. Blood samples were collected at specified time points, including pre-dose, 1, 2, 4, and 6 hours post-dose, on day 1 of cycle 1. Measurements of alpelisib and capecitabine were carried out with a validated LC-MS/MS assay. PK parameters, including maximum plasma concentration (Cmax), time to reach maximum plasma concentration (tmax), area under the plasma concentration-time curve (AUC), and elimination half-life (t1/2), were calculated using non-compartmental methods. […] The data were presented as the mean (range) and standard deviation (SD).

[2] = test system: advanced solid malignancies with PIK3CA alterations; design: method as in PMID 29401002; conditions: single-agent alpelisib, once daily; first-in-human phase I; cited from earlier work
[3] = design: method as in PMID 21332655; conditions: monotherapy, salvage regimens in Korea, retrospective data; cited from earlier work
[4] = human, plasma, oral, Dose level 0 (n=3): alpelisib 200mg+capecitabine 1000mg/m^2, day 1 of cycle 1
[5] = human, plasma, oral, Dose level 0 (n=3): alpelisib 200mg+capecitabine 1000mg/m^2, plasma, day 1 of cycle 1
[6] = human, plasma, oral, Dose level 1 (n=6): alpelisib 300mg+capecitabine 1000mg/m^2, day 1 of cycle 1
[7] = human, plasma, oral, Dose level 1 (n=6): alpelisib 300mg+capecitabine 1000mg/m^2, plasma, day 1 of cycle 1
[8] = human, plasma, oral, across dose levels 0, 1 and 2, read-out: time to reach peak concentration (tmax)

Row | Tmax ([1]; human, plasma, oral, Dose level 1 (n=6): alpelisib 300mg+capecitabine 1000mg/m^2, day 1 of cycle 1, ± SD, read-out: tmax) | SMILES | Tmax ([1]; Dose level 0 (n=3): alpelisib 200mg+capecitabine 1000mg/m^2, day 1 of cycle 1, ± SD) | Tmax ([1]; Dose level 1 (n=6): alpelisib 300mg+capecitabine 1000mg/m^2, day 1 of cycle 1, ± SD) | Alpelisib exposure (Cmax and AUC0-12) with concomitant capecitabine ([1]; co-administration in patients) | half-life [1, 4] | AUC(0-t) [1, 4] | Cmax [1, 5] | half-life [1, 6] | AUC(0-t) [1, 6] | Cmax [1, 7] | Tmax [1, 8] | AUC ([1]; human, plasma, oral) | MTD [2] | disease control rate [3]
1 | – | Cc1nc(NC(=O)N2CCC[C@H]2C(N)=O)sc1-c1ccnc(C(C)(C)C(F)(F)F)c1 [alpelisib] | 2 ± 0.6 h | 4 ± 1.8 h | unaffected | 6.5 h | 4930 ng·h/mL | 1170 ng/mL | 9.29 h | 5070 ng·h/mL | 1240 ng/mL | 2 to 4 h | 4930 to 8190 ng·h/mL | 400 mg | –
2 | 2 h | CCCCCOC(=O)Nc1nc(=O)n([C@@H]2O[C@H](C)[C@@H](O)[C@H]2O)cc1F [capecitabine] | – | – | – | 0.89 h | 2670 ng·h/mL | 2500 ng/mL | 0.63 h | 6000 ng·h/mL | 4160 ng/mL | 1 to 2 h | 2670 to 8710 ng·h/mL | – | 60%
